Assay results as given in patent publication US20170193176A1, “System, Method, and Software for Improved Drug Efficacy and Safety in a Patient” (Insilico Medicine, Inc., priority 2015, published 2017).

Test system: renal cancer patients
Test: Clinical outcome of renal cancer patients treated with targeted drugs (nibs)
Type: in vivo, human
Settings: for # of transcriptomes taken from responders: sustained stabilization of tumor progress; for # of transcriptomes taken from non-responders: tumor progression despite the applied treatment
Procedure: A set of samples taken from the tumors of renal cancer patients who were treated at Clinical Hospital of the Hertzen Cancer Institute in Moscow. These samples were examined using the Illumina HT-12 platform at Medical Center of Lethbridge University in Canada. As a reference normal renal tissue, the dataset GSE49972 (Karlsson et al., 2014) obtained on the same platform, was used. […] The overview of renal cancer transcriptomes selected for the V-dataset, is shown below in Table 3.
As an example, we list here the details of case history for one of the patient, who has been a responder to Sunitinib treatment.
Person; the clear cell cancer in left kidney; disease progression stage T3N0M1, distant metastases to lungs and skeleton. Surgery has not been performed due to the overall progression of the disease. Before the chemotherapy for distant metastases, the patient received the symptomatic radiation therapy of 30 Gy on the pelvic and femoral zone. Two months after the patient received the neo-adjuvant Sunitinib therapy in overall dose of 50 mg.
As long as two years after the treatment, the patient was still alive and continued to receive the adjuvant Sunitinib therapy.

Question: How did the “# of transcriptomes taken from responders” value turn out when `Cc1ccc(Nc2nccc(N(C)c3ccc4c(C)n(C)nc4c3)n2)cc1S(N)(=O)=O` [Pazopanib] was run?
Answer: Its value is 4.

Question: What about the “# of transcriptomes taken from non-responders” value of the same molecule?
Answer: Its value is 3.

Question: How did the “# of transcriptomes taken from responders” value turn out when `CNC(=O)c1cc(Oc2ccc(NC(=O)Nc3ccc(Cl)c(C(F)(F)F)c3)cc2)ccn1` [Sorafenib] was run?
Answer: The value was 13.

Question: And the “# of transcriptomes taken from non-responders” value?
Answer: The value was 15.

Question: What does the source list for `CCN(CC)CCNC(=O)c1c(C)[nH]c(/C=C2\C(=O)Nc3ccc(F)cc32)c1C` [Sunitinib]?
Answer: # of transcriptomes taken from responders: 5; # of transcriptomes taken from non-responders: 10
